Source: patent US9284284B2, “Oxazine derivatives and their use in the treatment of disease” (NOVARTIS AG, priority 2011, dated 2016)

How the values were obtained:
human BACE-1 = human BACE-1 (Homo sapiens (Human), UniProt P56817); assay: Test 1: Inhibition of Human BACE-1; assay type: biochemical; conditions: recombinant BACE-1, pH 4.5, fluorescence-quenched substrate
Procedure: Test 1: Inhibition of Human BACE-1
(§1) Recombinant BACE-1 (extracellular domain, expressed in baculovirus and purified using standard methods) at 0.1 to 1 nM concentrations is incubated with the test compound at various concentrations for 1 hour at room temperature in 100 mM acetate buffer, pH 4.5, containing 0.1% CHAPS. Activity was measured using a final concentration of 3 μM of the fluorescence-quenched substrate Q-C(HSO3)-Ile-Asp-Leu-Ala-Val-Leu-Asp-HN—CH2—CH2-Mca, where Q=2-nitro-5-amino benzoic acid and Mca=7-methoxy-4-coumarinyl acetic acid. […] Fluorescence increase was followed for 15 min, in 1 minute's intervals. The fluorescence/time slopes were calculated from duplicate wells and from wells without inhibitor and the IC50 values were calculated using a logistic 4-parameter model.

[1] = test system: amyloid peptide 1-40 release; assay: Test 4: Inhibition of Cellular Release of Amyloid Peptide 1-40; assay type: cell-based; conditions: Cricetulus griseus; Chinese hamster ovary cells transfected with the human gene for amyloid precursor protein, 24 hours; read-out: Amyloid-β1-40 release IC50
Procedure: Chinese hamster ovary cells are transfected with the human gene for amyloid precursor protein. The cells are plated at a density of 8000 cells/well into 96-well microtiter plates and cultivated for 24 hours in DMEM cell culture medium containing 10% FCS. The test compound is added to the cells at various concentrations, and the cells are cultivated for 24 hours in the presence of the test compound. […] The potency of the compound is calculated from the percentage of inhibition of amyloid peptide release as a function of the test compound concentration.

human BACE-2 = human BACE-2 (Homo sapiens (Human), UniProt Q9Y5Z0); assay: Test 2: Inhibition of Human BACE-2; assay type: biochemical; conditions: recombinant BACE-2, pH 4.5, fluorescence-quenched substrate
Procedure: Test 2: Inhibition of Human BACE-2
as §1, with “BACE-2” for “BACE-1”

Chain of human BACE-2 (Q9Y5Z0 63-473): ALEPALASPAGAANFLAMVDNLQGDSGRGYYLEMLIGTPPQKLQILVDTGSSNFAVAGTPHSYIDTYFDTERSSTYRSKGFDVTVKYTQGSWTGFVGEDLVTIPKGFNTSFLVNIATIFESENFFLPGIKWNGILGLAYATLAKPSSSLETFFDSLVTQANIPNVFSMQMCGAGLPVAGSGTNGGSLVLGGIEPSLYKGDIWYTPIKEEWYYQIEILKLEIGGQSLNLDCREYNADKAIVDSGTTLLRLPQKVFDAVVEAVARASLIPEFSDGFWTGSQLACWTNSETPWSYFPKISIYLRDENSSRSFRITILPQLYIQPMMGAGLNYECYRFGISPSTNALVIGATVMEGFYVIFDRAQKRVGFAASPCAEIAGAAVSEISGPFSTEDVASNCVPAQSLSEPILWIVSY
Chain of human BACE-1 (P56817 46-457): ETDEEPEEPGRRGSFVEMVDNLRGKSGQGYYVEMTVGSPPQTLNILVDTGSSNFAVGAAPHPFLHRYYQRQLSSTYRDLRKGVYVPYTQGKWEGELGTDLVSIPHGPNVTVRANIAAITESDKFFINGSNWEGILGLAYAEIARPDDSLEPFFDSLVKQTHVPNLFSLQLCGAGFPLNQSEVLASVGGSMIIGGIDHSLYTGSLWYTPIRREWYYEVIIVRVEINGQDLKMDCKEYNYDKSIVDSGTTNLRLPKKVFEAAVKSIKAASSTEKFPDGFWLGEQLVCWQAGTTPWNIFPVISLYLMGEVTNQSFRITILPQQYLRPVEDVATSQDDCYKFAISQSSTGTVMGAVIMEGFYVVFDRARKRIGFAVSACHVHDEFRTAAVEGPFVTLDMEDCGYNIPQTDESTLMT

| SMILES | IC50 (human BACE-1) [nM] | IC50 [1] [nM] | IC50 (human BACE-2) [nM] |
| --- | --- | --- | --- |
| CC1(c2cccc(Nc3nsc4cc(Br)ccc34)c2)COCC(N)=N1 (centres unmarked) [Example 1, [3-(5-Amino-3-methyl-3,6-dihydro-2H-[1,4]oxazin-3-yl)-phenyl]-(6-bromo-benzo[d]isothiazol-3-yl)-amine] | 1500 | 2900 | 1900 |
| Cn1nc(Nc2cccc(C3(C)COCC(N)=N3)c2)c2ccc(Br)cc21 (centres unmarked) [Example 2, [3-(5-Amino-3-methyl-3,6-dihydro-2H-[1,4]oxazin-3-yl)-phenyl]-(6-bromo-1-methyl-1H-indazol-3-yl)-amine] | 5200 | 3500 | > 10000 |
| CC1(c2cccc(Nc3noc4ccccc34)c2)COCC(N)=N1 (centres unmarked) [Example 3, [3-(5-Amino-3-methyl-3,6-dihydro-2H-[1,4]oxazin-3-yl)-phenyl]-benzo[d]isoxazol-3-yl-amine] | 8900 | 7100 | 3200 |
| CC1(c2cc(NCc3ccco3)ccc2F)COCC(N)=N1 (centres unmarked) [Example 4, 5-{2-Fluoro-5-[(furan-2-ylmethyl)-amino]-phenyl}-5-methyl-5,6-dihydro-2H-[1,4]oxazin-3-ylamine] | 1900 | 380 | 2400 |
| NC1=NC(CF)(c2cc(NCc3ccc(Br)cc3Cl)ccc2F)COC1 (centres unmarked) [Example 5, 5-[5-(4-Bromo-2-chloro-benzylamino)-2-fluoro-phenyl]-5-fluoromethyl-5,6-dihydro-2H-[1,4]oxazin-3-ylamine] | 3600 | 1400 | 5300 |
| NC1=NC(c2cc(NCc3cc(Br)co3)ccc2F)(C(F)F)COC1 (centres unmarked) [Example 6, 5-{5-[(4-Bromo-furan-2-ylmethyl)-amino]-2-fluoro-phenyl}-5-difluoromethyl-5,6-dihydro-2H-[1,4]oxazin-3-ylamine] | 6200 | 740 | 8300 |
| NC1=N[C@@](c2cc(Nc3ncnc4cc(Cl)cnc34)ccc2F)(C(F)F)COC1 [Example 7] | 36 | 22 | 32 |
| NC1=N[C@@](c2cc(Nc3nccc4cc(Br)cnc34)ccc2F)(C(F)F)COC1 [Example 8, [3-((R)-5-Amino-3-difluoromethyl-3,6-dihydro-2H-[1,4]oxazin-3-yl)-4-fluoro-phenyl]-(3-bromo-[1,7]naphthyridin-8-yl)-amine] | 21 | 33 | 11 |
| N#Cc1cnc2c(Nc3ccc(F)c([C@]4(C(F)F)COCC(N)=N4)c3)nccc2c1 [Example 9, 8-[3-((R)-5-Amino-3-difluoromethyl-3,6-dihydro-2H-[1,4]oxazin-3-yl)-4-fluoro-phenylamino]-[1,7]naphthyridine-3-carbonitrile] | 18 | 5 | 30 |
| COCCOc1cnc2c(Nc3ccc(F)c([C@]4(C(F)F)COCC(N)=N4)c3)nccc2c1 [Example 10, [3-((R)-5-Amino-3-difluoromethyl-3,6-dihydro-2H-[1,4]oxazin-3-yl)-4-fluoro-phenyl]-[3-(2-methoxy-ethoxy)-[1,7]naphthyridin-8-yl]-amine] | 600 | 24 | 8200 |
| NC1=N[C@@](c2cc(Nc3nccc4cc(OCCCl)cnc34)ccc2F)(C(F)F)COC1 [Example 11] | 1900 | 250 | 5600 |
| Cc1cn2ccnc(Nc3ccc(F)c([C@]4(C(F)F)COCC(N)=N4)c3)c2n1 [Example 12, [3-((R)-5-Amino-3-difluoromethyl-3,6-dihydro-2H-[1,4]oxazin-3-yl)-4-fluoro-phenyl]-(2-methyl-imidazo[1,2-a]pyrazin-8-yl)-amine] | 350 | 86 | 72 |
| COc1c(N)ncnc1Nc1ccc(F)c([C@]2(C(F)F)COCC(N)=N2)c1 [N-[3-((R)-5-amino-3-difluoromethyl-3,6-dihydro-2H-[1,4]oxazin-3-yl)-4-fluoro-phenyl]-5-methoxy-pyrimidine-4,6-diamine] | > 10000 | – | > 10000 |
